What was measured:
Jurkat T cells = assay: Apoptosis assay (TUNEL, flow cytometry); format: cell-based; settings: 3 μM, 24 hours
Method: To determine the mechanism behind the ability of SCY to inhibit cell proliferation, about 2×10^5 Jurkat T cells/ml were treated with vehicle (negative control), 3 μM SCY, or 3 μM camptothecin (positive control) a (0.1% DMSO[final]) and incubated at 37° C., 5% CO2 for 24 hours. As a positive control, camptothecin, a DNA topoisomerase inhibitor, was used because of its ability to arrest Jurkat cells at the G2/M phase of the cell cycle and induce the cells to undergo apoptosis. The cells were fixed in 1% paraformaldehyde, washed once with PBS, and stored in 70% EtOH at−20° C. Apoptosis was measured using the Promega Apoptosis Detection System (Promega, Madison, Wis.) an adapted TUNEL staining method.
The cells were washed two times with 5 ml PBS 2% FBS, then transferred to a microcentrifuge tube in 1 ml PBS, 0.2% Triton×100, 5 mg/ml BSA and incubated on ice for 5 minutes. Samples were spun, PBS solution removed, then resuspended in 80 μl equilibration buffer from Promega kit and incubated at room temperature for 10 minutes. Then the samples were spun and the equilibration buffer removed. A nucleotide mix comprising 45 μl equilibration buffer, 5 μl nucleotide mix, 1 μl Tdt enzyme per sample, was used to resuspend each sample in the dark. The cells were incubated in the dark at 37° C. for 1 hour. The reaction was terminated by the addition of 20 mM EDTA. The samples were washed twice with 1 ml RNAse A and a small aliquot, about 50 μl, was viewed under a microscope. Cells were stained with fluoroscein and then counterstained with propidium iodide and analyzed for DNA content and fragmentation using a Becton-Dickinson FacsSort (Becton-Dickinson, San Jose, Calif.).

[1] = system: PMA-induced cell proliferation in mouse ear epidermis; assay: Mouse ear cell proliferation assay (IUdR incorporation, PCNA histology); format: in vivo
Method: To determine the efficacy of scytonemin as an anti-proliferative agent in vivo, the following assay was conducted. On day one, test compounds were delivered in 10 μl 20% DMSO, 80% acetone and applied to both the inner and outer pinnae of left ears (20 μl total) of male, Swiss Webster mice (Taconic Farms, Germantown, N.Y.). The right ears received only vehicle. One hour post test compound application, 4 μg/ear PMA (Sigma, St. Louis, Mo.) in 10 μl acetone was applied to the inner pinnae of each left ear and 10 μl acetone was applied to each right ear. Four hours post test compound application, the each test compound was again applied in the same manner. On day two, the test compounds were applied twice with a four-hour interval between each application. On day three, the test compounds and PMA were applied as they had been on day one.
One hour after the final test compound applications, each mouse was injected with 0.6 ml of a solution containing the thymidine analogue, 5-iodo-I^125-2′-deoxyuridine (IUdR) (2 μCi-I^125/mouse) and, to inhibit the endogenous deoxythymidilic acid synthetase, fluorodeoxyuridine (FUdR) ([…]). This IUdR/FUdR solution was made up in RPMI 1640 media. Eighteen hours post injection, the mice were euthanized via CO2 inhalation, the ears were excised and soaked individually in a 70% EtOH solution overnight.
IUdR incorporation was then measured using a Beckman Gamma counter, Model 5500B. […] Therefore, scytoneman compounds may be used to reduce, prevent, inhibit, modulate, or attenuate cell proliferation.
Additionally, immunostaining with Proliferating Cell Nuclear Antigen (PCNA) was used as a proliferation marker to identify proliferating cells. PCNA is a cofactor for DNAt […]. Expression levels of PCNA fluctuate over the cell cycle. […] Low expression levels of PCNA indicate non-cycling cells.
Histological analysis was used to determine the effect of scytonemin on the thickness of the epidermal layer of skin, the mitotic index of cells in the epidermal layer, the number of cells in the epidermis, and the amount of immune cell infiltration. PCNA antibodies were used to detect the presence of PCNA in cells and a peroxidase-Ni/DAB development system was used to stain PCNA-positive cells black and hematoxlin was used as a nuclear blue counterstain using conventional methods.

scytonemin
effect on cell cycle progression (Jurkat T cells): did not have any cell cycle specific effect
induction of apoptosis (DNA fragmentation) (Jurkat T cells): cause the cells to undergo apoptosis in all phases of the cell cycle
cells actively proliferating (PCNA staining) ([1]; +PMA 4 μg/ear, scytonemin 1 mg/ear, dexamethasone 0.15 mg/ear): about 60%
mitotic index of epidermal cells ([1]; PMA-treated mouse ears, 5% SCY): reduces the mitotic index
cell proliferation in vivo (IUdR incorporation) ([1]; topical, PMA 4 μg/ear): effectively reduced or prevented cell proliferation in vivo
